According to patent US10485846B2, “Collagenase-derived peptides promote tissue regeneration and wound healing” (Tufts University, priority 2014, dated 2019):

What was measured:
cranial cutaneous wounds = assay: Cranial cutaneous excisional wound healing in cyclophosphamide-treated mice (impaired healing model); format: in vivo, Balb/c mice; conditions: peptide in CMC applied daily days 1-5, day 6 post-injury; vs untreated control or collagenase (FIGS. 7-8)
Experimental: Balb/c mice were pre-treated with cyclophosphamide at 150 mg/kg 3 days prior to injury and with 100 mg/kg cyclophosphamide 1 day before injury. Cranial cutaneous wounds were created using 4 mm punch biopsy tool and immediately covered with adherent transparent dressing (TEGADERM™). The peptides were prepared fresh daily and injected under the dressing on days 1-5 post injury. On day 6 after wounding the animals were sacrificed according to Division of Laboratory Animal Medicine (DLAM) approved procedures. Wounds together with surrounding healthy tissues were excised, cut in half along the midline and either fixed in 4% phosphate buffered formaldehyde or frozen in OCT for further processing. […]
Wounds were created, treated as described in FIG. 6 and scored in a blind manner according to the grading described in Table 2. * indicates statistical significance of findings (p<0.05).
Wounds were created and treated as described in FIG. 1. Wound epithelialization was measured at day 6 post wounding. ** indicate statistical significance of findings (p<0.05). […]
Following cyclophosphamide treatment, animals were injured and then wounds treated/covered. Test entities were coded so that the nature of the experiment was blinded to the investigator; and, each specimen was evaluated and scored blindly according to the wound healing system shown in Table 2, prior to unmasking the experimental code. […]

[1] = tested on: adult human keratinocytes; assay: Scratch wound closure / post-injury migration of keratinocyte monolayer; format: cell-based; conditions: 10 nM peptide, monitored 0, 1, 3 and 5 hours post-injury (FIG. 5)
Experimental: Adult human keratinocytes were plated into glass-bottom well plates at high density. Scratch wounds were made in the cell monolayer 24 h post-plating. The peptides dissolved in keratinocyte growth media (10 nM) were applied immediately after wounding. Wound closure was monitored at 0, 1, 3 and 5 hours post-injury. Dashed line outlines the wounds. Representative images of wounds treated with TSN2 and TSN6 are shown.
Human epidermis-derived keratinocytes were plated at a post-confluent density prior to mechanical injury in the presence or absence of bioactive wound healing peptides or control entities.

[2] = tested on: human microvascular endothelial cells; assay: In vitro angiogenesis / tube formation on growth factor-reduced Matrigel; format: cell-based; conditions: 100 nM peptide in Matrigel and media (FIG. 4)
Experimental: ECM-derived peptides were dissolved in growth factor-reduced Matrigel at 100 nM, the matrix was allowed to polymerize, human microvascular endothelial cells were plated either in control low serum containing media or media containing 100 nM peptides. Representative images of cells treated with endothelial ECM-derived peptides are shown.
Function-specific domains present within TSN1/2 and the newly-engineered “combinatorial” peptides present within TSN 10 are able to promote in vitro angiogenesis. TSN peptides promote morphogenesis and angiogenic activation by stimulating migration, proliferation and tube formation; peptide-stimulated endothelial tubes are more numerous, of greater length, having more branch points then control treated endothelial cell cultures.

[3] = tested on: human microvascular endothelial cells; assay: Human microvascular endothelial cell proliferation (coulter counter cell count); format: cell-based; conditions: for endothelial cell proliferation relative to control: 100 nM peptides every other day, counted day 5 post-plating (FIG. 2); for endothelial growth-promoting activity compared with fibroblast growth factor 2 (FGF2): FIG. 2
Experimental: Human microvascular endothelial cells were plated at low density in multi-well plates and treated with 100 nM peptides every other day. At day 5 post-plating the cells were counted using a coulter counter. Cell proliferation relative to control is shown. *statistical significance (p<0.05).
(§1) In our efforts aimed at characterizing the growth-promoting, migration-enhancing and angiogenesis-inducing activities embodied in SANTYL® collagenase Ointment and in an effort focused on contrasting the efficacy of collagenase vs. the newly-discovered SANTYL® collagenase API-derived bioactive wound healing peptide(s), we continue to perform a battery of pre-clinical tests and trials using the well-established models of injury and repair developed, here, at Tufts University School of Medicine and the Center for Innovations in Wound Healing Research. To these ends, we took advantage of the 2D and 3D injury/repair models developed to quantify cellular responses to injury. […] This is especially noteworthy since these peptides not only promote vascular endothelial growth but, adult human keratinocyte growth.

[4] = tested on: adult human keratinocytes; assay: Adult human keratinocyte proliferation (coulter counter cell count); format: cell-based; conditions: FIG. 3B, PK vs. peptides
Experimental: Adult human keratinocytes were plated at low density in multi-well plates and treated with 10 nM peptides (FIG. 3A) or 1-100 nM peptides (FIG. 3B) every other day. At day 7 post-plating the cells were counted using a coulter counter. Cell proliferation relative to control (FIG. 3A) or absolute cell number grown (FIG. 3B) are shown. *statistical significance (p<0.05).
as §1

Sequence	wound healing in vivo (wound score, Table 2 grading; wound closure) (cranial cutaneous wounds)	keratinocyte migration in response to scratch injury (wound closure) [1]	in vitro angiogenesis (tube formation) [2]	endothelial cell proliferation relative to control [3]	endothelial growth-promoting activity compared with fibroblast growth factor 2 (FGF2) [3]	keratinocyte growth-promoting activity compared with PK SANTYL collagenase API [4]
HSPDIQLQKGLTFEPIQIK (listed as Homo sapiens) [TSN6, 19 aa peptide; origin Multimerin-1 Coiled coil domain]	markedly stimulated to heal wounds	marked migration-enhancing activity	–	–	–	–
MENAELDVPIQSVFTR (listed as Homo sapiens) [TSN2, 16 aa peptide; origin Thrombospondin-1 N-terminal domain]	–	marked migration-enhancing activity	angiogenesis-inducing activity	stimulate human dermally-derived microvascular endothelial cell growth in vitro	exceed the growth-promoting activity embodied in fibroblast growth factor 2 (FGF2)	completely accounting for the keratinocyte growth-promoting activity present within PK SANTYL collagenase API
TGQSYNQYSQRPYLGVYVFK (listed as Homo sapiens) [TSN10, 20 aa combinatorial peptide; Combination of Thrombospondin and multimerin peptides]	–	–	markedly promoted in vitro angiogenesis	–	–	completely accounting for the keratinocyte growth-promoting activity present within PK SANTYL collagenase API
NFQGVQNRFVFGTP (listed as Homo sapiens) [TSN1, 14 aa peptide; origin Thrombospondin-1 Laminin G-like domain]	–	–	markedly promoted in vitro angiogenesis	stimulate human dermally-derived microvascular endothelial cell growth in vitro	exceed the growth-promoting activity embodied in fibroblast growth factor 2 (FGF2)	completely accounting for the keratinocyte growth-promoting activity present within PK SANTYL collagenase API
RPGPSPEGTGQSYNYR (listed as Homo sapiens) [TSN8, 16 aa peptide]	–	–	markedly promoted in vitro angiogenesis	–	–	–
